For the test, the target named is T1, GPR103 I26N-termA (Homo sapiens, UniProt Q96P65, I26A).
T1 construct: we used human full-length QRFPR-encoding plasmids; expressed in transfected cells; host or cells: HEK293 cells, pCAGGS vector
T1 sequence (Q96P65 1-431 I26A): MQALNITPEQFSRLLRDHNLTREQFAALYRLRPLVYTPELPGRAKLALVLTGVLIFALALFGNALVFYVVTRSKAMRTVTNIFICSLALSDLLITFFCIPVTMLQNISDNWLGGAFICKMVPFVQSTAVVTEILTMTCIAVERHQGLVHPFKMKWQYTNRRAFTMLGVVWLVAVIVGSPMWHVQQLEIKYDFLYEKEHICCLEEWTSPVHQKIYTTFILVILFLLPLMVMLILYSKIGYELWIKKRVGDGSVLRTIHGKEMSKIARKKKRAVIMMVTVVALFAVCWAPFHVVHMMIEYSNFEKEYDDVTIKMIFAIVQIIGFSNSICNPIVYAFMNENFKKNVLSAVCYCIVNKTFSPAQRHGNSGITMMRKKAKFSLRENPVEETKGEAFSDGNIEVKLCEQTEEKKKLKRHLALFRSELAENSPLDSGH
Kind of test: TGFα shedding assay; Exp. level WT (1:20). Format: cell-based.

These results are taken from article PMC11187126, “Structure and dynamics of the pyroglutamylated RF-amide peptide QRFP receptor GPR103” (Nature Communications, 2024).

No end group written: not given here.

The term Emax denotes the greatest response seen or fitted, relative to the assay's reference. The term EC50 denotes the concentration needed to bring the measured effect to its halfway point. Higher therefore signals lower potency in that assay.

On to TSGPLGNLAEELNGYSRKKGGFSFRF-NH2 [QRFP26], for which the Emax (mean) was found to be 95.1%. Besides, where the note is “n = 3”, a half-maximal response (EC50) required 43.7 nM and the Emax came to 97.6 ± 5%.
